# In US6518012B1, “Method for regulating the expression of MHC antigens and CD40 by inhibitors of histone deacetylation” (Health Research, Inc., priority 1999, dated 2003):
# Assays:
# [1] = system: class II transactivator (CIITA) mRNA; experiment: CIITA mRNA by standard PCR and real-time PCR in human cell lines JAR and SK-N-MC; format: cell-based; details: for CIITA mRNA fold change: MC cells, real time PCR up to 60 cycles, 100 nM TSA 24 hr, NaBu 1 mM 48 hr
# Procedure: To determine the effect of DAIs on HLA-DRα mRNA, cytoplasmic RNA was isolated from untreated and treated human trophoblast cell line JAR using standard techniques (RNeasy System from Qiagen). Standard PCR was performed using primers for DR and CIITA (Murphy et al., 1998, Reprod Dev., Chin et al., 1994, Immunity 1:687-697). Other primers used included human and mouse GAPDH (Clontech) and forward primer 5′-[…]-3′ (SEQ ID NO:25) and reverse primer 5′-[…]-3′ (SEQ ID NO:26) for mouse CIITA. PCR products were amplified with GOLD Taq for 10 min at 95° C., then 95° C. for 30 sec, 60° C. for 60 sec (25-45 cycles), then an extension at 60° C. for 10 min.
# Oligonucleotide primers and TaqMan 5′-6-FAM and 3′-TAMRA-labeled probes were synthesized in the RPCI Biopolymer Facility. Primer and probe sequences are listed under Sequence Listing and also in FIG. 9. Sequences were designed using standard software (PrimerExpress software, PE Biosystems) except for human GAPDH.
# Realtime PCR reactions contained TaqMan Universal PCR Master Mix (PE Biosystems), primers at 300 nM, and probes at optimal concentrations (150-225 nM depending on gene). Reactions were carried out on an ABI PRISM 7700 Sequence Detection System (PE Biosystems). Cycling conditions were 50° C. for 2 min, 95° C. for 10 min, then 60 cycles of 95° C. for 15 sec, 60° C. for 1 min. PCR samples were run in triplicate. The detection system and quantitative PCR was carried out as described by Williamson et al. (1995, Genet Res. 65:83-93). The threshold cycle number CT corresponded to the cycle number, at which the fluorescent emission reaches 10 standard deviations above the mean fluorescent emission, measured during the early ‘baseline’ cycles of the PCR. The CT values for triplicates were averaged and normalized to GAPDH levels. […] Assuming reverse transcription efficiencies were approximately the same for each sample, relative amounts of mRNA using the comparative CT method. Fold changes in mRNA levels were calculated as 2^x where x=the difference between normalized CT values of the control and experimental samples.
# […] RNA was isolated and real time quantitative RT-PCR was carried out. The fold increase in mRNA over the control was calculated.
# CD40 = experiment: Cell surface CD40 by flow cytometry on Colon 26 and J558; format: cell-based, mouse
# Procedure: To determine the effect of TSA on cell surface protein expression, the J558 cell line was subjected to flow cytometric analyses as follows. Flow cytometric analyses were conducted by standard methods using cells fixed with 1.0% paraformaldehyde and analyzed on the FACScan (Becton Dickinson). Cell cycle analyses were carried out by flow cytometry with PI staining of genomic DNA. Cells were fixed and permeablized in methanol, treated with RNaseA and analyzed for DNA content by determination of FL3-area on the FACScan. The FL3-area data were analyzed with the ModFit software for determination of the percent cells in each phase of the cell cycle. In some cases, fluorescein isothiocyanate (FITC)-conjugated antibody staining was conducted prior to PI treatment and surface staining was analyzed as a function of cell cycle phase. Apoptosis was analyzed by staining with annexin-V directly conjugated with either FITC or RPE and by sub-G0 analysis of DNA staining. […] Isotype controls were analyzed and, in each case, fell on or below the levels shown for control cells. […] Since all cells were positive for MHC class I expression, the number under the histogram represents -fold change of expression calculated from the mean channel-shift after treatment relative to untreated cells. […]
# MHC class I = experiment: Cell surface MHC class I by flow cytometry on Colon 26 and J558; format: cell-based, mouse
# Procedure: To determine the effect of TSA on cell surface protein expression, the J558 cell line was subjected to flow cytometric analyses as follows. Flow cytometric analyses were conducted by standard methods using cells fixed with 1.0% paraformaldehyde and analyzed on the FACScan (Becton Dickinson). Cell cycle analyses were carried out by flow cytometry with PI staining of genomic DNA. Cells were fixed and permeablized in methanol, treated with RNaseA and analyzed for DNA content by determination of FL3-area on the FACScan. The FL3-area data were analyzed with the ModFit software for determination of the percent cells in each phase of the cell cycle. In some cases, fluorescein isothiocyanate (FITC)-conjugated antibody staining was conducted prior to PI treatment and surface staining was analyzed as a function of cell cycle phase. Apoptosis was analyzed by staining with annexin-V directly conjugated with either FITC or RPE and by sub-G0 analysis of DNA staining. Expression levels without treatment are shown as shaded peaks, IFNγ treated cell expression is plotted by a thin line while the level of expression on TSA treated cells is represented by a heavy line. Isotype controls were analyzed and, in each case, fell on or below the levels shown for control cells. […] Since all cells were positive for MHC class I expression, the number under the histogram represents -fold change of expression calculated from the mean channel-shift after treatment relative to untreated cells. […] Of the 13 markers analyzed on J558 cells, only class I, II and CD40 were enhanced, while levels of several non-expressed antigens were not elicited (including CD25, B7 integrin, CD40L, H2K^k and IA^k) while other markers, which were expressed, were not altered (including CD44, CD54, CD80, CD86 and CD119) by TSA treatment. […] The separation of control and IFNγ curves in the CD40, J558 experiment depicted in FIG. 8 represents a mean channel fluorescence difference of only 1.3 and was not seen on independent replicates of the experiment. […]
# CD40 mRNA = CD40 mRNA by real-time PCR in SK-N-MC; format: cell-based, human; details: MC cells, at 24 hours
# [2] = SK-N-MC, routine RT-PCR at 35 cycles, 100 nM TSA 24 hours, 1 mM NaBu 48 hours, IFNγ
# [3] = Colon 26 and J558, flow cytometry
Compound,"CIITA transcription ([1]; JAR, standard PCR at 35 cycles, 100 nM or 250 nM TSA or 1 mM sodium butyrate)",CIITA mRNA fold change ([1]; IFNγ),"CIITA transcription [1, 2]",expression of CD40 on cell surface (CD40; [3]),MHC class I expression on cell surface (MHC class I; [3]),"class I expression as a function of cell cycle phase (MHC class I; J558, double staining with PI and antibody to class I)",CD40 mRNA fold increase (CD40 mRNA),"mean channel fluorescence difference between control and IFNγ curves, CD40 (CD40; J558, IFNγ 100 U/ml 24 hours, not seen on independent replicates)","MHC class I expression, response to IFNγ (MHC class I; J558, IFNγ 100 U/ml)"
"CC(/C=C/C(=O)NO)=C\[C@@H](C)C(=O)c1ccc(N(C)C)cc1 [TSA, Trichostatin A]",undetectable,no increase,undetectable,induced expression,enhanced,induced expression throughout the cell cycle,12 fold,,
"IFNγ: gamma-interferon, cytokine used as comparator at 100 U/ml",,4 fold,not detected,,,,5 fold,1.3,unresponsive
